Assay results as given in patent US20180008629A1, “Compositions and Methods for Treating NLRP3 Inflammasome-Related Diseases and Disorders” (priority 2015, published 2018).

Key:
[1] = target: NLRP3 inflammasome (Mus musculus, UniProt Q8R4B8); test: NLRP3 inflammasome activation in LPS primed BMDMs (caspase-1 / IL-1β immunoblot); assay type: cell-based; parameters: endogenous in cells; host or cells: mouse bone marrow derived macrophages (A1)
Protocol: All steps were performed using sterile technique. Femurs were collected in RPMI (Life Technologies, Grand Island, N.Y.)+5% FBS (R5; Omega Scientific, Tarzana, Calif.). Both ends of the femur were then cut and the femur was flushed with R5. The bone marrow was centrifuge at 450 g for 5 min, the supernatant was decanted and red blood cells were lysed using ACK lysis buffer (Quality Biological, Gaithersburg, Md.). After neutralization with R5, bone marrow cells were centrifuged, resuspended in 10 ml of R5 and placed into a 6 well plate. Non-adherent cells were collected the following morning. The non-adherent cells were resuspended at 4×10^6 cells/ml in media consisting of 10 ml supernatant of non-adherent cells, 7.2 ml L929 conditioned media, 6.8 ml R5 and MCSF (long/ml; R&D Systems, Minneapolis, Minn.). An additional 2 ml of fresh media was added 4 d after isolation. Non-adherent cells were collected on day 7, separated by density gradient separation using Fico/Lite (Atlanta Biologicals, Flowery Branch, Ga.) and mononuclear cells were collected. Cells were rinsed twice with Dulbecco's PBS+2% FBS, and resuspended at 1×10^6 cells/ml. Cells were treated with ultrapure LPS (Invivogen, San Diego, Calif.) alone or in combination with 5 mM ATP (Sigma, St. Louis, Mo.) or 200 μM palmitate-BSA (Sigma). The BMDMs were also primed with ultrapure lipid A (10 μg/ml; Invivogen, San Diego, Calif.), lipoteichoic acid (10 μg/ml; Invivogen), or Pam3-CSK4 (10 μg/ml; Invivogen) for 4 hour and stimulated with various NLRP3 activators (ATP 5 mM; Sigma, MSU 250 ug/ml; Invivogen, Silica; 200 ug/ml; Invivogen, sodium palmitate; 200 μM; Sigma, ceramide C6 80 μg/ml; Cayman, and sphingosine 40 μM; Cayman, Ann Arbor, Mich.) for 1 hour together with D-BHB or L-(BHB) at indicated concentration. The cell supernatants and cell lysates were collected 1 h after BHB treatment and analyzed for caspase-1 and IL-1β.
The BMDM cell lysates were prepared using RIPA buffer and immediately snap frozen in liquid nitrogen. Samples were left on ice for 1 hour with vortexing every 10 min. Samples were then centrifuge at 14,000 g for 15 min, the supernatant was collected and the protein concentration was determined using the DC Protein Assay (Bio-RAD). […] The immune complexes were visualized by incubation with horseradish peroxidase-conjugated anti-rat or anti-rabbit secondary antibody (Amersham Biosciences). Immunoreactive bands were visualized by enhanced chemiluminescence (PerkinElmer Life Sciences).

[2] = tested on: BMDMs; test: Intracellular K+ measurement in BMDMs (APG-1 dye, ICP-MS); assay type: cell-based, mouse; settings: LPS primed BMDMs
Protocol: (§1) The BMDM proliferation in response to BHB treatment was analyzed using the MTT assay according to manufacturer's instructions. The BMDM were incubated with Asante Potassium Green 1 (APG-1) which is a fluorescent indicator with a Kd for measuring cytosolic K+ concentration. It has non-ratiometric large fluorescence dynamic range allows sensing of even small changes in K+ concentration. Optimal excitation was recorded at 517 nm. In addition, the K+ was measured in BMDMs using an ElementXR or Agilent 7700 Inductively Coupled Mass Spectrometry (ICP-MS) using previously described methods (Muñoz-Planillo et al., 2013, Immunity 38:1142-1153). For error analysis, samples and standard solutions were run in duplicate.

[3] = tested on: caspase-11; test: Non-canonical inflammasome pathway, caspase-11 immunoblot in LPS treated BMDMs; assay type: cell-based, mouse; settings: BMDMs treated with LPS 4 h
[4] = target: T1, NLRC4 (Mus musculus, UniProt Q3UP24); assay type: cell-based; settings: BMDMs infected with Salmonella typhimurium, 0, 1, 5, or 10 mM BHB
T1 construct: endogenous in cells; host or cells: mouse BMDMs infected with Salmonella typhimurium (SL1344)
T1 sequence (Q3UP24 whole entry): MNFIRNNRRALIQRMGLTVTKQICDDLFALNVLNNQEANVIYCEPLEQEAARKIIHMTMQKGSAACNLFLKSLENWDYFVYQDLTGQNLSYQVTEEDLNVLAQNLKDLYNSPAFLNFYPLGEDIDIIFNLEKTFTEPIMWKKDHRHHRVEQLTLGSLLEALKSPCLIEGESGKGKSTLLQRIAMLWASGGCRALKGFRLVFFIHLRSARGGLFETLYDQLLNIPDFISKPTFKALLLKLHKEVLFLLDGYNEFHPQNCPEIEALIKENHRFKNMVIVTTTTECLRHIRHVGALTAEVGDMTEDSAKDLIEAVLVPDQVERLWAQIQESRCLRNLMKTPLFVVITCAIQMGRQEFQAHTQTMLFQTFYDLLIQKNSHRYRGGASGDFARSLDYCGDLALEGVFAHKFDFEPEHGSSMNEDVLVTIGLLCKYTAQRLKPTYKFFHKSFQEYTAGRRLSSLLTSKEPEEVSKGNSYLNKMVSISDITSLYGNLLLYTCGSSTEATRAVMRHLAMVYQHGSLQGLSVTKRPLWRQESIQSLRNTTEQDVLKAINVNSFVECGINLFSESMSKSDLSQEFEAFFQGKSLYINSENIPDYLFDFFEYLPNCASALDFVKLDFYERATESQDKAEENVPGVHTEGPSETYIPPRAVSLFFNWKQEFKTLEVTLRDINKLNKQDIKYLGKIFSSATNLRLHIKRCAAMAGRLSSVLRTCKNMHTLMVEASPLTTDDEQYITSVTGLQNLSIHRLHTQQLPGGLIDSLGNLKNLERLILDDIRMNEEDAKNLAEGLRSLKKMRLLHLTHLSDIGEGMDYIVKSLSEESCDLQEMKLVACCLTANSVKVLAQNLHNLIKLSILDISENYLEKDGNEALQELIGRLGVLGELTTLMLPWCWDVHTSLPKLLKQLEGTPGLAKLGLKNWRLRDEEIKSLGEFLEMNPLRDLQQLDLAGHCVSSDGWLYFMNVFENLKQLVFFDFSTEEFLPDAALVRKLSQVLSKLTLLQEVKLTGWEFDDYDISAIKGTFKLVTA

[5] = target: AIM2 inflammasome (Mus musculus, UniProt Q91VJ1); assay type: cell-based
AIM2 inflammasome, sequence (Q91VJ1 whole entry, looked up): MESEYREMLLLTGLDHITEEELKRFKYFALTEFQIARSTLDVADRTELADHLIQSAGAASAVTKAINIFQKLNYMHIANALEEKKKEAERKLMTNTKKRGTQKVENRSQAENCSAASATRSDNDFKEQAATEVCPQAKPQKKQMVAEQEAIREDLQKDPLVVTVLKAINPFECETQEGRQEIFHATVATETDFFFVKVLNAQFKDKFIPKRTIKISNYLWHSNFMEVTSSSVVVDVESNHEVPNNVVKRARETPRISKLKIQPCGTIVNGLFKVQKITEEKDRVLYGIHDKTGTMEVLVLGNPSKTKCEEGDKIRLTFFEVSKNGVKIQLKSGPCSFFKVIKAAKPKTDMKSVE

[6] = tested on: BMDMs; test: BMDM viability and proliferation (MTT assay); assay type: cell-based, mouse
Protocol: as §1

[7] = Gout induced by intra-articular injection of MSU in rats fed ketogenic diet; assay type: in vivo, rat; settings: ketogenic diet 1 week
Protocol: Rats were fed a ketogenic diet for 1 week prior to the induction of gout by intra-articular injection of MSU. Blood BHB levels were measured in rats after 1 week ketogenic diet feeding, prior to injection with MSU (FIG. 21A). Knee thickness was measured daily (FIG. 21B). The increase in knee swelling relative to baseline thickness was measured 2 days after gout induction (FIG. 21C). Serum IL-1β was measured by ELISA on day 2 post-MSU injection (FIG. 21D).

[8] = target: NLRP3^L351P (Mus musculus, UniProt Q8R4B8, L351P); assay type: cell-based; parameters: endogenous in cells; Nlrp3 L351P Cre+ mice after tamoxifen in vivo (A14); settings: constitutively active NLRP3 inflammasome, LPS
NLRP3^L351P, sequence (Q8R4B8 whole entry L351P): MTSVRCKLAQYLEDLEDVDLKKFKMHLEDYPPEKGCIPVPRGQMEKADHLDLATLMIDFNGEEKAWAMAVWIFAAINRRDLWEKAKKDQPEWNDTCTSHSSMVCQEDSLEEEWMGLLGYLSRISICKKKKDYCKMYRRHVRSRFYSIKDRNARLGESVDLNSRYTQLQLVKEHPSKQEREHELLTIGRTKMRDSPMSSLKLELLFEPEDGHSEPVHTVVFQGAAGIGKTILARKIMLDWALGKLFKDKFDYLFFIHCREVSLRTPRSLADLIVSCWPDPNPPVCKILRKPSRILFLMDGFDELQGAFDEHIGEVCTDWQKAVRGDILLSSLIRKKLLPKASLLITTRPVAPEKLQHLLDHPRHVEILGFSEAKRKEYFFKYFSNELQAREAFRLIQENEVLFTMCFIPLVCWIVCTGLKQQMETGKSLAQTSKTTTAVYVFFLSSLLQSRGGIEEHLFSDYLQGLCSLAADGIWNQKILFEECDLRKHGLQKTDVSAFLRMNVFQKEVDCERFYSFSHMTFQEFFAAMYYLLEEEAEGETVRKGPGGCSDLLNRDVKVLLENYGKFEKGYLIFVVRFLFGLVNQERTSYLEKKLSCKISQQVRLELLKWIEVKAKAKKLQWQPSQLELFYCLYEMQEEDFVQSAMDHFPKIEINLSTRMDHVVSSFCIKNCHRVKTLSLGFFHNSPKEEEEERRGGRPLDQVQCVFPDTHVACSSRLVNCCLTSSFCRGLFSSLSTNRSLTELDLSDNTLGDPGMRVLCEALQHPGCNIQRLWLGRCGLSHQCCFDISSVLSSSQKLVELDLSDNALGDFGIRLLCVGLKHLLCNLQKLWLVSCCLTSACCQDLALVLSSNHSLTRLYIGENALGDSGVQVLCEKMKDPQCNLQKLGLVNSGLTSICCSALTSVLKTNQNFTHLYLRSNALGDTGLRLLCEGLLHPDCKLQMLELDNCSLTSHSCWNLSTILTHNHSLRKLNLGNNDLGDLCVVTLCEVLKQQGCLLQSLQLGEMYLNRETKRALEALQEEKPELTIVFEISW

[9] = tested on: H3 acetylation; test: H3 acetylation in LPS primed BMDMs (western blot); assay type: cell-based, mouse; settings: LPS primed BMDMs treated with ATP and BHB 1 h
Protocol: FIG. 5, comprising FIGS. 5A-5B, depicts data from experiments examining the mechanism of BHB's anti-inflammasome effects. FIG. 5A is a representative western blot analysis of caspase-1 in BMDMs primed with LPS for 4 hours and stimulated with 2DG, AICAR, Compound C and BHB for 1 h on indicated combinations. FIG. 5B is a representative western blot examining H3 acetylation in LPS primed BMDMs treated with ATP and S- or D-BHB (R-BHB) for 1 h.
The BMDM cell lysates were prepared using RIPA buffer and immediately snap frozen in liquid nitrogen. Samples were left on ice for 1 hour with vortexing every 10 min. Samples were then centrifuge at 14,000 g for 15 min, the supernatant was collected and the protein concentration was determined using the DC Protein Assay (Bio-RAD). The immunoblot analysis was performed using previously described methods (Vandanmagsar et al., 2011, Nat. Med. 17:179-188). The immune complexes were visualized by incubation with horseradish peroxidase-conjugated anti-rat or anti-rabbit secondary antibody (Amersham Biosciences). Immunoreactive bands were visualized by enhanced chemiluminescence (PerkinElmer Life Sciences).

[10] = tested on: neutrophil hyperactivation; test: MSU peritonitis model in old mice fed ketogenic diet; assay type: in vivo, mouse; settings: ketogenic diet one week prior to MSU challenge
Protocol: Old mice were fed a ketogenic diet for one week prior to MSU challenge to induce neutrophil infiltration and inflammasome activation (FIG. 16A). Body weights and blood BHB concentrations were measured daily. Four hours after MSU injection, total peritoneal cells were collected and analyzed by FACS to enumerate total neutrophil infiltration (FIG. 16B). Gene expression within peritoneal cells was measured by RT-PCR (FIG. 16C). Expression was normalized to Gapdh expression and data are represented as expression relative to adults. Data are pooled from two independent experiments (FIGS. 16B and 16C). Statistical differences were calculated by 2-way ANOVA (FIG. 16A) or 1-way ANOVA (FIG. 16B). […]
Mice were fed a ketogenic diet for 1 week prior to an increase in BHB levels and then infection or peritonitis was induced by injection of monosodium urate. Body weights and blood BHB concentrations were measured daily in old mice during ketogenic diet feeding, prior to MSU injection (FIG. 19A). […] The peritoneal cells were isolated and pro-inflammatory cytokine Il1b, Nlrp3 and Tnf gene expression was measured by RT-PCR (FIG. 19B). […] Blood BHB levels were measured in adult mice 24 hr post-infection with Staphylococcus aureus (FIG. 19C). Total cells collected from brocho-aleveolar lavage BAL fluid from lungs 24 hr post-infection were quantified (FIG. 19D). […]

NLRP3 inflammasome, sequence (Q8R4B8 whole entry): as the sequence (Q8R4B8 whole entry L351P) above, with P351L counted along it

Q: With CC(O)CC(=O)O (stereo not drawn) [BHB, β-hydroxybutyrate] as the molecule, how does the “BHB's inhibitory effects on the inflammasome in macrophages lacking Atg5” value ([1]; Atg5 deficient BMDMs, LPS, ATP, BHB (10 mM)) read?
A: not required

Q: What about the “ATP-induced caspase-1 activation without involvement of AMPK” value ([1]; BHB (10 mM) with AICAR 2 mM or Compound C 25 μM) of the same molecule?
A: suppressed

Q: What about the “ATP-induced IL-1β activation without involvement of AMPK” value ([1]; BHB with AICAR or Compound C) of the same molecule?
A: suppressed

Q: And the “inflammasome activation after priming with Pam3-CSK4” value ([1]; BMDMs primed with TLR1/2 ligand Pam3-CSK4 4 h, ATP and BHB 1 h)?
A: effectively suppressed

Q: What about the “inflammasome activation after priming with lipoteichoic acid (LTA)” value ([1]; BMDMs primed with TLR2 agonist LTA 4 h, ATP and BHB 1 h) of the same molecule?
A: effectively suppressed

Q: What about the “inflammasome activation after priming with lipid A” value ([1]; BMDMs primed with TLR4 agonist lipid A 4 h, ATP and BHB 1 h) of the same molecule?
A: effectively suppressed

Q: What about the “BHB's anti-inflammasome effects in BMDMs deficient in GPR109a” value ([1]; Gpr109a deficient BMDMs, LPS and ATP, BHB (10, 20 mM)) of the same molecule?
A: could not be abrogated

Q: What about the “processing of biologically active p17 form of IL-1β” value ([1]; LPS primed BMDMs, ATP and BHB for 60 minutes) of the same molecule?
A: dose-dependently inhibited

Q: And the “ATP-induced caspase-1 cleavage” value ([1]; LPS primed BMDMs, ATP and BHB for 60 minutes, Western blot of p20)?
A: dose-dependently inhibited

Q: And the “inflammasome activation by ceramides” value ([1]; LPS primed BMDMs, C6 ceramide 6 h (80 μg/ml))?
A: blocked

Q: What about the “monosodium urate (MSU) crystals induced caspase-1 activation” value ([1]; LPS primed BMDMs, MSU) of the same molecule?
A: inhibited

Q: What about the “inflammasome activation by nigericin” value ([1]; LPS primed BMDMs, nigericin (10 μM) 1 h) of the same molecule?
A: blocked

Q: And the “inflammasome activation by palmitate” value ([1]; LPS primed BMDMs, palmitate (200 μM) 12 h)?
A: blocked

Q: And the “inflammasome activation by silica particles” value ([1]; LPS primed BMDMs, silica 1 hour)?
A: blocked

Q: And the “inflammasome activation by sphingosine” value ([1]; LPS primed BMDMs, sphingosine (50 μM) 1 h)?
A: blocked

Q: What about the “BHB's inhibitory effects on NLRP3 activation after ablation of Sirt2 or UCP2” value ([1]; Sirt2−/− or Ucp2−/− BMDMs, LPS and ATP, BHB (10 mM) 1 h) of the same molecule?
A: did not control

Q: What about the “decline in intracellular K+ in response to MSU” value ([2]; BHB 1 h) of the same molecule?
A: prevented the decline

Q: What about the “decline in intracellular K+ in response to ATP” value ([2]; BHB (10 mM)) of the same molecule?
A: prevented the decline

Q: What about the “decline in intracellular K+ in response to ceramides” value ([2]; C6 ceramide and BHB 1 h) of the same molecule?
A: prevented the decline

Q: What about the caspase-11 activation [3] of the same molecule?
A: neither butyrate nor BHB blocks

Q: What about the “NLRC4 mediated caspase-1 cleavage” value [4] of the same molecule?
A: did not inhibit

Q: And the “AIM2 inflammasome induced IL-1β activation” value [5]?
A: did not inhibit

Q: And the cellular proliferation ([6]; 10 mM concentration)?
A: significantly increased

Q: What about the “viability of BMDMs” value ([6]; increasing concentration of BHB) of the same molecule?
A: did not impair

Q: What about the Gout-induced inflammation [7] of the same molecule?
A: protect

Q: What about the “ASC oligomerization in macrophages of FCAS mice” value [8] of the same molecule?
A: directly prevented

Q: And the “H3 acetylation in macrophages” value [9]?
A: inducing

Q: And the “neutrophil hyperactivation in peritonitis” value [10]?
A: prevented
